Source: PubChem BioAssay (NCI)
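Step 1: Grow cells in 96-well plates. Step 2: Expose to compound for 48 hours at 5 concentrations. Step 3: Interpolate endpoints linearly; if unreached, use highest concentration. GI50: concentration for 50% inhibition of growth. TGI: concentration producing complete growth inhibition.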

Key:
Test in all cases: NCI anticancer screen, dose series, 48 h
HCC-2998 colon = test system: HCC-2998 colon
HL-60(TB) leukemia = test system: HL-60(TB) leukemia
HOP-92 NSCLC = test system: HOP-92 NSCLC
HT29 colon = test system: HT29 colon
MALME-3M melanoma = test system: MALME-3M melanoma
NCI-H226 lung = test system: NCI-H226 lung
NCI/ADR-RES ovarian = test system: NCI/ADR-RES ovarian
OVCAR-5 ovarian = test system: OVCAR-5 ovarian
UACC-257 melanoma = test system: UACC-257 melanoma
UO-31 renal = test system: UO-31 renal

Structure (SMILES) | TGI (HCC-2998 colon) [µM] | TGI (HL-60(TB) leukemia) [µM] | TGI (HOP-92 NSCLC) [µM] | TGI (HT29 colon) [µM] | TGI (MALME-3M melanoma) [µM] | TGI (NCI-H226 lung) [µM] | TGI (NCI/ADR-RES ovarian) [µM] | TGI (OVCAR-5 ovarian) [µM] | TGI (UACC-257 melanoma) [µM] | TGI (UO-31 renal) [µM] | GI50 (HCC-2998 colon) [µM] | GI50 (HL-60(TB) leukemia) [µM] | GI50 (HOP-92 NSCLC) [µM] | GI50 (HT29 colon) [µM] | GI50 (NCI-H226 lung) [µM] | GI50 (NCI/ADR-RES ovarian) [µM] | GI50 (OVCAR-5 ovarian) [µM] | GI50 (UACC-257 melanoma) [µM] | GI50 (UO-31 renal) [µM]
COc1ccc2c3c([nH]c2c1)CCN(Cc1ccccc1)C3 | 34.1 | 35.8 | 25.6 | > 100 | 34.6 | 73.2 | 98.3 | 69 | 42.5 | 39.6 |  |  |  |  |  |  |  |  | 
Cc1nc2[nH]ncn2c(=O)c1CCO | > 10 | > 10 |  | > 10 | > 10 | > 10 | > 10 | > 10 |  | > 10 |  |  |  |  |  |  |  |  | 
CC(CN(C)C)C(=O)c1ccccc1 (stereo unspecified) | 63 | > 57 | 6.87 | 41.3 | > 61.1 | > 100 |  | 96.1 | > 84.7 | > 31.6 |  |  |  |  |  |  |  |  | 
COc1cc(C2c3cc4c(cc3[C@@H](Oc3ccc(F)cc3)C3COC(=O)[C@H]23)OCO4)cc(OC)c1O (stereo partly specified) | > 100 | 1.06 | > 100 | 20 | 31.8 |  |  | > 100 | 22.8 | > 100 |  |  |  |  |  |  |  |  | 
COc1ccc(C2C3CCCC(C3=O)C(c3ccc(OC)cc3)N2N=O)cc1 (stereo unspecified) | 59.6 | > 64 | > 100 | 51.2 | 20 | 61.6 | > 87.2 | > 100 | 82.7 | > 100 |  |  |  |  |  |  |  |  | 
ClCc1cccc(CSc2ncnc3c2ncn3Cc2cccc(CCl)c2)c1 | 3.13 | 5.03 | 3.32 | 3.74 |  | 4.54 | 6.83 | 3.99 | 3.37 | 3.93 | 1.71 | 2.26 | 1.64 | 2.04 | 1.66 | 2.11 | 1.84 | 1.74 | 1.74
COc1ccc2c(c1)c(=O)c1c(NCCN(C)C)ccc3nnn2c31 | 17.8 | 5.51 | 10.8 | 12.3 | 17.2 | 9.44 |  | 19.6 | 17 | 13.3 |  |  |  |  |  |  |  |  | 
CCOC(=O)Cc1cnc(NC(NC(=O)CC)(C(F)(F)F)C(F)(F)F)s1 | > 100 | > 100 |  | > 100 | > 100 | > 100 |  | > 100 | > 100 | > 100 |  |  |  |  |  |  |  |  | 
COc1ccc(N2C(=O)C3c4[nH]c5ccc(F)cc5c4C4CCC(C(C)(C)C)CC4C3C2=O)cc1 (stereo unspecified) | > 10 | > 10 |  | > 10 | > 10 | > 10 | > 10 | > 10 |  | > 10 |  |  |  |  |  |  |  |  | 
O=C(NCCNc1nccc(-c2c(-c3cccc(O)c3)nc3sccn23)n1)c1ccccc1 | 31.2 | 29.6 | 33.2 | 38.3 |  | 45.3 | > 100 | 61.8 | 18.5 | 88.7 | 13.8 | 10.2 | 2.22 | 6.8 | 7.95 | 34.8 | 18.3 | 0.489 | 12.2
O=C(NNS(=O)(=O)c1ccccc1)c1cccnc1 | > 100 | > 100 | > 100 | > 100 | > 100 | > 100 | > 100 | > 100 | > 100 | > 100 |  |  |  |  |  |  |  |  | 
